Test results as given in patent US6599705B2, “Regulation of fungal gene expression” (priority 1997, dated 2003).

Assays:
C. albicans = test: dig assay (nonfilamentous agar invasion) on YPD gradient plates; format: cell-based; conditions: YPD agar with fluconazole gradient, two days, washed with water (FIG. 12)
From the text: We have discovered that pathogenic fungi can display similar digging behavior, characterized by increased invasion into or adherence to a defined substrate. […] This behavior is similar to the reported digging behavior of S. cerevisiae. As is true for S. cerevisiae, non-hyphal agar invasion by any given C. albicans mutant strain correlates with the ability of that strain to form filaments under filament-inducing conditions (e.g., agar+serum). Thus, screening for compounds that block the digging phenotype in fungi will allow for identification of compounds that block filament formation and, as a result, pathogenesis. These compounds are considered useful as fungicides or fungistats. Similarly, screening for compounds that increase substrate invasion will allow for identification of compounds which may also increase production or yield of secondary metabolites.
An example of the dig assay is given below. To test whether a chemical compound would affect the nonfilamentous agar invasion behavior of nonmutant S. cerevisiae or C. albicans at concentrations much lower than the lowest growth inhibitory concentration, these fungi were spotted onto agar plates containing rich medium (YPD) and a gradient of the antifungal fluconazole. The plates were then incubated for two days at optimum growth temperatures and washed with water. […]

S. cerevisiae = test: as above; format: cell-based; conditions: YPD agar with fluconazole gradient, two days, washed with water (FIG. 12)
From the text: Another example of a screen is based on the observation that yeast from haploid S. cerevisiae invade agar when grown on rich (YPD) medium without forming pseudohyphae. This nonfilamentous invasion behavior has been termed “digging,” and the assay used to detect this behavior has been termed the “dig assay.” Roberts and Fink, supra. […] Mutant strains defective for digging are referred to as “dig minus,” or “dig−.” The correlation of pseudohyphal invasion and behavior in the dig assay is an essential aspect of this screen. The dig assay is comparatively easy to perform relative to pseudohyphal invasion assays, and, as it occurs in haploid cells, is more amenable to genetic approaches that rely upon recessive mutations.
An example of the dig assay is given below. To test whether a chemical compound would affect the nonfilamentous agar invasion behavior of nonmutant S. cerevisiae or C. albicans at concentrations much lower than the lowest growth inhibitory concentration, these fungi were spotted onto agar plates containing rich medium (YPD) and a gradient of the antifungal fluconazole. The plates were then incubated for two days at optimum growth temperatures and washed with water. […] This assay can be performed on other dimorphic fungi, such as U. maydis, as well as on other fungi. […]

OC(Cn1cncn1)(Cn1cncn1)c1ccc(F)cc1F [fluconazole]
inhibition of agar invasion relative to growth inhibition (C. albicans): inhibition of agar invasion at significantly lower concentrations of fluconazole than those necessary to inhibit growth
inhibition of agar invasion relative to growth inhibition (S. cerevisiae): inhibition of agar invasion at significantly lower concentrations of fluconazole than those necessary to inhibit growth
